Values quoted from earlier work as cited in patent US11147307B2, “Flavor capsules for smoking articles” (PHILIP MORRIS PRODUCTS S.A., priority 2015, dated 2021).

solubility in water: about 200 g/100 ml
SMILES: OC[C@@H](O)[C@@H](O[C@H]1O[C@H](CO)[C@@H](O)[C@H](O)[C@H]1O)[C@H](O)[C@@H](O)CO [maltitol]
